Assay results reported in patent publication US20060018864A1, “Cosmetic preparation containing glycerylamino acid derivative” (priority 2002, published 2006).
Read-outs that look alike come from different tables or passages of the source.

What was measured:
[1] = Moisturizing effect measurement employing keratin powder (ground wool); format: physicochemical; details: (B/A)×100: water retained after further 6 hours at 20° C., 20.0% relative humidity, relative to water absorbed at 79.2% relative humidity for 48 hours
Procedure: For the constant-humidity bath under 20.0% of relative humidity, saturated aqueous potassium acetate solution was employed.
Moisturizing effect was evaluated by the following criteria,
Moisturizing effect rating criteria • ⊚: 60 or more • ◯: 50 or more and less than 60 • Δ: 40 or more and less than 50 • X: Less than 40

[2] = test system: skin (forearm of panelists); test: Moisturizing effect on skin: skin conductance (SKICON200-EX) on forearm of panelists; format: in vivo, human; details: for change in vivo at 5 %: Homo sapiens, topical, 20 min, read-out: Moisturizing effect on skin
Procedure: Evaluation was carried out in a manner that forearm of panelists was washed and then applied with 100 μl of aqueous amino acid N-glyceryl derivative solution prepared in 5% concentration. Then, conductance value of the skin was measured by SKICON200-EX (manufactured by IBS K. K.) before the application and in 20 minutes elapsed after the application.
Moisturizing effect on skin was evaluated by the following criteria.
Moisturizing effect on skin rating criteria • ◯: Conductance changing ratio is 10% more • □: Conductance changing ratio is 3% or more and less than 10% • X: Conductance changing ratio is less than 3.

[3] = Stability evaluation: odor of sample solution after storage at 50° C. for 1 month; details: for Stability: 5% by weight sample solution, sealed, 50° C., 1 month, odor, average of 5 panelists (3: no degradation odor, 1: strong degradation odor); for Formation of homogeneous solution of sample: 5% by weight sample solution for stability evaluation
Text: [Method of Stability Evaluation]
After 1 month being elapsed, the sealing was opened, followed by odor of samples being evaluated by 5 panelists according to the following criteria.
Odor rating criteria • 3: No degradation odor • 2: Almost no degradation odor • 1: Strong degradation odor
Odor evaluation value of each sample was the average of values determined by 5 panelists; the evaluation result was represented by the following marks rated according to respective criteria. • ∘: 2.4 or more and less than 3 • □: 1.8 or more and less than 2.4 • X: Less than 1.8

[4] = Moisture-absorption ability measurement employing keratin powder (ground wool); format: physicochemical; details: keratin powder with sample, 20° C., 79.2% relative humidity, 48 hours; absorbed water per 1 g of keratin powder
Procedure: [Method of Moisture-Absorption Ability Measurement Carried Out by Employing Keratin Powder (Ground Wool)]
Moisture-absorption ability was evaluated by the following criteria.
Moisture-absorption ability rating criteria • ⊚: Amount of absorbed water per 1 g of keratin powder is 0.60 g or more. • ◯: Amount of absorbed water per 1 g of keratin powder is 0.50 g or more and less than 0.60 g • Δ: Amount of absorbed water per 1 g of keratin powder is 0.40 g or more and less than 0.50 g • X: Amount of absorbed water per 1 g of keratin powder is less than 0.40 g [Method of Moisturizing Effect Measurement Carried Out by Employing Keratin Powder (Ground Wool)]

[5] = 100 μl of 5% aqueous solution on washed forearm, ten panelists, conductance changing ratio before vs 20 minutes after application

Moisturizing effect [1]	Stability [3]	Formation of homogeneous solution of sample [3]	Compound	Moisturizing effect on skin [2, 5]	Moisture-absorption ability [4]	change in vivo at 5 % [2, 5] [%]	change in vivo at 5 % [2] [%]
⊚ (60 or more)	Δ	–	Cl.NCCCC[C@H](NCC(O)CO)C(=O)O (stereo partly drawn) [Glyceryl derivative of lysine, N-glyceryllysine hydrochloride]	⊚	⊚ (Amount of absorbed water per 1 g of keratin powder is 0.60 g or more)	–	–
–	Δ	did not form homogeneous solution	CC(C)C[C@H](N)C(=O)O [Leucine]	–	–	< 3	–
◯ (50 or more and less than 60)	Δ	–	C[C@H](NCC(O)CO)C(=O)O (stereo partly drawn) [Glyceryl derivative of alanine, N-glycerylalanine]	–	⊚ (Amount of absorbed water per 1 g of keratin powder is 0.60 g or more)	> 10	–
–	–	–	1 sodium N-glycerylaspartate [Glyceryl derivative of aspartic acid]	⊚	–	–	–
–	X (Less than 1.8)	–	C[C@H](N)C(=O)O [Alanine]	–	–	–	–
Δ (40 or more and less than 50)	–	–	Cl.N[C@@H](Cc1cnc[nH]1)C(=O)O [Histidine hdrochloride]	Δ	Δ (Amount of absorbed water per 1 g of keratin powder is 0.40 g or more and less than 0.50 g)	–	–
◯ (50 or more and less than 60)	◯	–	O=C(O)[C@H](Cc1ccccc1)NCC(O)CO (stereo partly drawn) [Glyceryl derivative of phenylalanine, N-glycerylphenylalanine]	–	⊚ (Amount of absorbed water per 1 g of keratin powder is 0.60 g or more)	> 10	–
◯ (50 or more and less than 60)	–	–	CC(C)C[C@H](NCC(O)CO)C(=O)O (stereo partly drawn) [Glyceryl derivative of leucine, N-glycervylleucine]	◯ (Conductance changing ratio is 10% more)	⊚ (Amount of absorbed water per 1 g of keratin powder is 0.60 g or more)	–	–
⊚ (60 or more)	⊚	–	Cl.N=C(N)NCCC[C@H](NCC(O)CO)C(=O)O (stereo partly drawn) [Glyceryl derivative of arginine, N-glycerylarginine hydrochloride]	⊚	⊚ (Amount of absorbed water per 1 g of keratin powder is 0.60 g or more)	–	–
⊚ (60 or more)	Δ	–	O=C(O)[C@@H]1CCCN1CC(O)CO (stereo partly drawn) [Glyceryl derivative of proline, N-glycerylproline]	–	⊚ (Amount of absorbed water per 1 g of keratin powder is 0.60 g or more)	> 10	–
Δ (40 or more and less than 50)	–	–	N[C@@H](CO)C(=O)O [Serine]	–	Δ (Amount of absorbed water per 1 g of keratin powder is 0.40 g or more and less than 0.50 g)	< 3	–
Δ (40 or more and less than 50)	Δ	–	CNCC(=O)O [Sarcosine]	–	Δ (Amount of absorbed water per 1 g of keratin powder is 0.40 g or more and less than 0.50 g)	< 3	–
⊚ (60 or more)	◯	–	O=C([O-])CC[C@H](NCC(O)CO)C(=O)[O-].[Na+].[Na+] (stereo partly drawn) [Glyceryl derivative of glutamic acid, sodium N-glycerylglutamate]	⊚	⊚ (Amount of absorbed water per 1 g of keratin powder is 0.60 g or more)	–	–
X (Less than 40)	Δ	did not form homogeneous solution	N[C@@H](Cc1ccccc1)C(=O)O [Phenylalanine]	–	X (Amount of absorbed water per 1 g of keratin powder is less than 0.40 g)	< 3	–
◯ (50 or more and less than 60)	–	–	O=C(O)[C@@H]1CCCN1 [Proline]	Δ	◯ (Amount of absorbed water per 1 g of keratin powder is 0.50 g or more and less than 0.60 g)	–	–
Δ (40 or more and less than 50)	–	–	NCC(=O)O [Glycine]	Δ	Δ (Amount of absorbed water per 1 g of keratin powder is 0.40 g or more and less than 0.50 g)	–	–
⊚ (60 or more)	–	–	Cl.O=C(O)[C@H](Cc1c[nH]cn1)NCC(O)CO (stereo partly drawn) [Glyceryl derivative of histidine, M-glycerylhistidine hydrochloride]	⊚	⊚ (Amount of absorbed water per 1 g of keratin powder is 0.60 g or more)	–	–
⊚ (60 or more)	–	–	CN(CC(=O)O)CC(O)CO (stereo not drawn) [Glyceryl derivative of sarcosine, N-glyaerylsarcosine]	◯ (Conductance changing ratio is 10% more)	⊚ (Amount of absorbed water per 1 g of keratin powder is 0.60 g or more)	–	–
⊚ (60 or more)	◯	–	O=C(O)[C@H](CO)NCC(O)CO (stereo partly drawn) [Glyceryl derivative of serine, N-glycerylserine]	–	⊚ (Amount of absorbed water per 1 g of keratin powder is 0.60 g or more)	> 10	–
⊚ (60 or more)	Δ	–	O=C(O)CNCC(O)CO (stereo not drawn) [Glyceryl derivative of glycine, N-glycerylglycine]	–	⊚ (Amount of absorbed water per 1 g of keratin powder is 0.60 g or more)	> 10	–
◯ (50 or more and less than 60)	◯	–	OCC(O)CO [Glycerin]	–	◯ (Amount of absorbed water per 1 g of keratin powder is 0.50 g or more and less than 0.60 g)	–	–
Δ (40 or more and less than 50)	Δ	–	N[C@@H](CCC(=O)[O-])C(=O)[O-].O.[Na+].[Na+] [Sodium glutamate hydrate]	–	Δ (Amount of absorbed water per 1 g of keratin powder is 0.40 g or more and less than 0.50 g)	–	> 10

Compound	Moisturizing effect [1]	Stability [3]	Formation of homogeneous solution of sample [3]	Moisturizing effect on skin [2, 5]	Moisture-absorption ability [4]	change in vivo at 5 % [2, 5] [%]	change in vivo at 5 % [2] [%]
CC(O)CCO (stereo not drawn) [1,3-Butylene glycol]	Δ (40 or more and less than 50)	Δ	–	Δ	Δ (Amount of absorbed water per 1 g of keratin powder is 0.40 g or more and less than 0.50 g)	–	–
Cl.N=C(N)NCCC[C@H](N)C(=O)O [Arginine hydrochloride]	◯ (50 or more and less than 60)	◯	–	–	◯ (Amount of absorbed water per 1 g of keratin powder is 0.50 g or more and less than 0.60 g)	–	> 10
Cl.NCCCC[C@H](N)C(=O)O [Lysine hydrochloride]	Δ (40 or more and less than 50)	Δ	–	Δ	Δ (Amount of absorbed water per 1 g of keratin powder is 0.40 g or more and less than 0.50 g)	–	–
N[C@@H](CC(=O)[O-])C(=O)[O-].O.[Na+].[Na+] [Sodium aspartate hydrate]	Δ (40 or more and less than 50)	Δ	–	Δ	Δ (Amount of absorbed water per 1 g of keratin powder is 0.40 g or more and less than 0.50 g)	–	–
